The target of assay [1] is T1, Mu-type opioid receptor (Homo sapiens, UniProt P35372).
In assay [2] the target is Sodium-dependent dopamine transporter (Homo sapiens, UniProt Q01959).
For assay [3], the target named is Beta-2 adrenergic receptor (Homo sapiens, UniProt P07550). The class given is functional, cell-based.
Assay [4] deals with Neuronal acetylcholine receptor subunit alpha-4 (Homo sapiens, UniProt P43681).
The target of assay [5] is T2, Endothelin-1 receptor (Homo sapiens, UniProt P25101).
T2 sequence (P25101 whole entry): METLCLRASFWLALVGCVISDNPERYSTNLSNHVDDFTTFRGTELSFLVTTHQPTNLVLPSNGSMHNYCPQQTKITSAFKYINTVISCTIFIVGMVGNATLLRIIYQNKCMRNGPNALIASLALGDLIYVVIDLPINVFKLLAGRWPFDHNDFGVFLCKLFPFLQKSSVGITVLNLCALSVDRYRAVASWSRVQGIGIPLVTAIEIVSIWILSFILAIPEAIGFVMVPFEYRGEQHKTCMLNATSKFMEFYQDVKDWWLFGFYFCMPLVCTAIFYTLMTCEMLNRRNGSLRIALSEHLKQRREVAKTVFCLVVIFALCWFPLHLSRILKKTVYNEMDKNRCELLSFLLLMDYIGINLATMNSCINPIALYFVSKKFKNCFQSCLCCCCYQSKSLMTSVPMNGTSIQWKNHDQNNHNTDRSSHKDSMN

The target in assay [6] is T3, Amine oxidase [flavin-containing] A (Homo sapiens, UniProt P21397).
T3 sequence (P21397 whole entry): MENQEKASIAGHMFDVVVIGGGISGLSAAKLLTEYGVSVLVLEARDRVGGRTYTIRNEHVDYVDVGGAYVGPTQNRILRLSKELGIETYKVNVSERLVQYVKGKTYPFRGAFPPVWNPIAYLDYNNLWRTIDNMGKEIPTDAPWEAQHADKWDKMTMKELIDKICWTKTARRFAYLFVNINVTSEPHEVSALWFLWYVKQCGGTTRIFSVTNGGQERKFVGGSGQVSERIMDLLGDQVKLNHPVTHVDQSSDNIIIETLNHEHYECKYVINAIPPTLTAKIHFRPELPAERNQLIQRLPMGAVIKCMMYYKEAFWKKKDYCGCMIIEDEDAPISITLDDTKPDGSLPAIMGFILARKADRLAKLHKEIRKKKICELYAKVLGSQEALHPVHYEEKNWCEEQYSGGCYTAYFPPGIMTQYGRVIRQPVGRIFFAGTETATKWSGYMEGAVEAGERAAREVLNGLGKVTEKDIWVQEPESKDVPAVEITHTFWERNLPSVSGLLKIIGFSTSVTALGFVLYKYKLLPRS
The class given is functional.

Assay [7] addresses T4, 5-hydroxytryptamine receptor 1A (Homo sapiens, UniProt P08908).
T4 sequence (P08908 whole entry): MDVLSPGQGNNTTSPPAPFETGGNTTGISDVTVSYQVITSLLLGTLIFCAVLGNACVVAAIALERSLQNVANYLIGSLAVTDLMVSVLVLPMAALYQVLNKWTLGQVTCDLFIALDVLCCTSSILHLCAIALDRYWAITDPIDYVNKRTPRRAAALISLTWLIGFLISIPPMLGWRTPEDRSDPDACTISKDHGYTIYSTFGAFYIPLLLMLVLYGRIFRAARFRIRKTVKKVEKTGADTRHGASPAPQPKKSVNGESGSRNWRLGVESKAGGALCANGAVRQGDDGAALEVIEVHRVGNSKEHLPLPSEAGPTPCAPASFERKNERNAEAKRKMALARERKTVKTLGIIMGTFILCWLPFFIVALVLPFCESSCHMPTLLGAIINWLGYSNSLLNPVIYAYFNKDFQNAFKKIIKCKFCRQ
The class given is functional, cell-based.

Assay [8] deals with T5, Alpha-1A adrenergic receptor (Homo sapiens, UniProt P35348).
T5 sequence (P35348 whole entry): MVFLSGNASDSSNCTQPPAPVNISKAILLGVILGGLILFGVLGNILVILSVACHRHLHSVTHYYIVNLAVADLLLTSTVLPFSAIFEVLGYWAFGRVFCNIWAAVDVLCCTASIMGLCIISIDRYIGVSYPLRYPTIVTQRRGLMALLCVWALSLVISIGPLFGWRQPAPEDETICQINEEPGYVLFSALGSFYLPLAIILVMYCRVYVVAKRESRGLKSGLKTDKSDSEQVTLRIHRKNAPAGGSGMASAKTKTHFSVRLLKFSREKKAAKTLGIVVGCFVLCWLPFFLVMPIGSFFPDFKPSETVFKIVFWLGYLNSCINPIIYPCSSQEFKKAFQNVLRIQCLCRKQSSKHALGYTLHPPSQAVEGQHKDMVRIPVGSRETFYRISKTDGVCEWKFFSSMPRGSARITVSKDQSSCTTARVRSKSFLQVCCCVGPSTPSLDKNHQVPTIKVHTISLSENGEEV

Assay [9] concerns the target T6, Neuropeptide Y receptor type 1 (Homo sapiens, UniProt P25929).
T6 sequence (P25929 whole entry): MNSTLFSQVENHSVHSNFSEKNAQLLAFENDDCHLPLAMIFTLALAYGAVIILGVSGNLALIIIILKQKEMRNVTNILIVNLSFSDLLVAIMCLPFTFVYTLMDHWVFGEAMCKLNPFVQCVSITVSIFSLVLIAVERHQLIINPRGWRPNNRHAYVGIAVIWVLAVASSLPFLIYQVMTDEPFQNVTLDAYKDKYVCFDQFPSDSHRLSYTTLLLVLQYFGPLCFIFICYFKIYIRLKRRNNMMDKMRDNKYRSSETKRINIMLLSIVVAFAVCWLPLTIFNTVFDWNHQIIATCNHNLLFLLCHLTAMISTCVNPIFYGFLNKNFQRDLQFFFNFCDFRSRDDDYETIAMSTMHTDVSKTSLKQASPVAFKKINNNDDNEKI

Assay [10] has as its target Kappa-type opioid receptor (Homo sapiens, UniProt P41145).
Assay [11] has as its target T5, Alpha-1A adrenergic receptor. The class given is functional, cell-based.
The target of assay [12] is Cannabinoid receptor 1 (Homo sapiens, UniProt P21554).
Assay [13] deals with T5, Alpha-1A adrenergic receptor. It counts as functional, cell-based. The source holds these as a separate data set.
In assay [14] the target is Histamine H1 receptor (Homo sapiens, UniProt P35367).
Assay [15] deals with T1, Mu-type opioid receptor. Put plainly: biochemical. The class given is functional.
For assay [16], the target named is 5-hydroxytryptamine receptor 2A (Homo sapiens, UniProt P28223). The class given is functional, cell-based.

This note sets out measurements from ChEMBL document CHEMBL5291721, “A preclinical secondary pharmacology resource illuminates target-adverse drug reaction associations of marketed drugs” (Nat Commun, 2023).

By AC50 is commonly meant the concentration giving half of the maximal activity seen. A higher AC50 goes with weaker potency.
Further: assay procedure not described here.

Sequence of Cannabinoid receptor 1 (P21554 whole entry): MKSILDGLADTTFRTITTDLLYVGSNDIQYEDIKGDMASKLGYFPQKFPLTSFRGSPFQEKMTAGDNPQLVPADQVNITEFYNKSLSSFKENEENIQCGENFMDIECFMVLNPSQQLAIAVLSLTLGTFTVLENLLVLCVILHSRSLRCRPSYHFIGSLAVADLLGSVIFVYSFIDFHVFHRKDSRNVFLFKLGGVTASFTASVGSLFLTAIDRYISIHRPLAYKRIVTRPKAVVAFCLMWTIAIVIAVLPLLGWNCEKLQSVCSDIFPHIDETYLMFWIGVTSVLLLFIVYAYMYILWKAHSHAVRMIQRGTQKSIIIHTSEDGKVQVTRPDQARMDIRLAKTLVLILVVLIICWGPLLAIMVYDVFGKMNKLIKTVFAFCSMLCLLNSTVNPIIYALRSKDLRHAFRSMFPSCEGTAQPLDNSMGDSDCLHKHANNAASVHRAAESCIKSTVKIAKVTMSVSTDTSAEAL
Sequence of Neuronal acetylcholine receptor subunit alpha-4 (P43681 whole entry): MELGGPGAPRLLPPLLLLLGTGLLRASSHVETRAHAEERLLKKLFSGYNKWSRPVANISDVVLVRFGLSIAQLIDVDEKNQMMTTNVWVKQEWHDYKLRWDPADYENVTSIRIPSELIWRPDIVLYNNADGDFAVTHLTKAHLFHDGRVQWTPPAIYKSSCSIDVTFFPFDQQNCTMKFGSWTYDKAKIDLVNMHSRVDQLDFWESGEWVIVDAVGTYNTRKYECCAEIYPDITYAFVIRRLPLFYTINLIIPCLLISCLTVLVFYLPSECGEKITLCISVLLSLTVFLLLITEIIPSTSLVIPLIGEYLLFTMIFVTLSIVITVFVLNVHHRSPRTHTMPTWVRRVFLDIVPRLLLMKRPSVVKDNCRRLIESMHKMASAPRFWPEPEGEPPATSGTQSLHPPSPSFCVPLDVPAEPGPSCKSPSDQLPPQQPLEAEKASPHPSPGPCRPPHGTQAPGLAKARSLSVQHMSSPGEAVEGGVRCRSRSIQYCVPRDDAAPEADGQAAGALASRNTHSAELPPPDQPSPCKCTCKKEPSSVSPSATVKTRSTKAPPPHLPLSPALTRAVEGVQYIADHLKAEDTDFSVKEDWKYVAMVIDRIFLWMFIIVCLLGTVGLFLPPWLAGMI
Sequence of Beta-2 adrenergic receptor (P07550 whole entry): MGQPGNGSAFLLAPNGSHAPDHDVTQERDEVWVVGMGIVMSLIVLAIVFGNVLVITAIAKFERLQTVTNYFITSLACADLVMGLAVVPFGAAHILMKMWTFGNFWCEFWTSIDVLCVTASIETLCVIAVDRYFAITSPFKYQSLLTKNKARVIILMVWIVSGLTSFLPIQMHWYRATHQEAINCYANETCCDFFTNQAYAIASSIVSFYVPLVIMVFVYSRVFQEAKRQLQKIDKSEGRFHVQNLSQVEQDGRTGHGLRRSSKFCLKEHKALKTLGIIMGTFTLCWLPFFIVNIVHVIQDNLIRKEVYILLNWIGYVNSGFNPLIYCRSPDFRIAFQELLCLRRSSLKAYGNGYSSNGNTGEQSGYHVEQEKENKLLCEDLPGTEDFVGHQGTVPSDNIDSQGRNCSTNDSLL
T1 sequence (P35372 whole entry): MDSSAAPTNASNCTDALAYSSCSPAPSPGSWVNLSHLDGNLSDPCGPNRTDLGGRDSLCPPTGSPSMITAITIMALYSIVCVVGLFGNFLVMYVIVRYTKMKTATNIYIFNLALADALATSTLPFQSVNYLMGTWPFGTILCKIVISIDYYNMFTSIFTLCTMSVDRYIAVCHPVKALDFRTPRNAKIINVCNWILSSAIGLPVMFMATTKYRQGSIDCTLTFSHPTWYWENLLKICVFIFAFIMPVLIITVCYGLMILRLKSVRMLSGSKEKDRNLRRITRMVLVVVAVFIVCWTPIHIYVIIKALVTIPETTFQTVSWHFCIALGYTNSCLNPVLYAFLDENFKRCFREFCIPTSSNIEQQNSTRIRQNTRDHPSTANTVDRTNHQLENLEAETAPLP
Sequence of Sodium-dependent dopamine transporter (Q01959 whole entry): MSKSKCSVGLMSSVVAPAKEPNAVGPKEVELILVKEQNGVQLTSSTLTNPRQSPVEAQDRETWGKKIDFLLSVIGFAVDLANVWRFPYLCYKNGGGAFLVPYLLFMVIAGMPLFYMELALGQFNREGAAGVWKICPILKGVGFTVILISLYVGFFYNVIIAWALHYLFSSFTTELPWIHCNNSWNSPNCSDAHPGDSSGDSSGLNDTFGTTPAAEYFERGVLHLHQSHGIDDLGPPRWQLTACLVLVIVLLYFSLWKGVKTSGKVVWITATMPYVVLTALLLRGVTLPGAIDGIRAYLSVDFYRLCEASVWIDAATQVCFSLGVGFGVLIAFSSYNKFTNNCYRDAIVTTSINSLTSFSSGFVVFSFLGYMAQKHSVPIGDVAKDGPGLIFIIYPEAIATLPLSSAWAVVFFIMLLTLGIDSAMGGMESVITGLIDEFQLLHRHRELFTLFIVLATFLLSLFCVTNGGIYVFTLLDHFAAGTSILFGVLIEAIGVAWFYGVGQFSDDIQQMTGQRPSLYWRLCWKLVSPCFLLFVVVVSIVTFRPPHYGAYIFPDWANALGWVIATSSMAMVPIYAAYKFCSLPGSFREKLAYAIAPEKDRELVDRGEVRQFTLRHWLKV
Sequence of Histamine H1 receptor (P35367 whole entry): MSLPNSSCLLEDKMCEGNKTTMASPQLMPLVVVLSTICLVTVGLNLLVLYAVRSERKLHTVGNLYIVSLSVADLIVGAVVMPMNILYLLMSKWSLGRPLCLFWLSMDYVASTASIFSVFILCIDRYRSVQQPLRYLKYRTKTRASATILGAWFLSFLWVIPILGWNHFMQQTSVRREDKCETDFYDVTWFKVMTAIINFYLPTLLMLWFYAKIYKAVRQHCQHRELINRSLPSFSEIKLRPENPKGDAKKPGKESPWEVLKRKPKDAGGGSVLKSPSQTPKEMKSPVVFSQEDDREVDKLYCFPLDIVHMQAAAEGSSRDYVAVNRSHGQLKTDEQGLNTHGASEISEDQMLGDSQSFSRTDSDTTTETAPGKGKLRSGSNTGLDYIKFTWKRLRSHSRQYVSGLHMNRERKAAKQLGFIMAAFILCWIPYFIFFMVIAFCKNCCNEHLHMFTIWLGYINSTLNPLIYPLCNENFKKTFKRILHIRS
Sequence of Kappa-type opioid receptor (P41145 whole entry): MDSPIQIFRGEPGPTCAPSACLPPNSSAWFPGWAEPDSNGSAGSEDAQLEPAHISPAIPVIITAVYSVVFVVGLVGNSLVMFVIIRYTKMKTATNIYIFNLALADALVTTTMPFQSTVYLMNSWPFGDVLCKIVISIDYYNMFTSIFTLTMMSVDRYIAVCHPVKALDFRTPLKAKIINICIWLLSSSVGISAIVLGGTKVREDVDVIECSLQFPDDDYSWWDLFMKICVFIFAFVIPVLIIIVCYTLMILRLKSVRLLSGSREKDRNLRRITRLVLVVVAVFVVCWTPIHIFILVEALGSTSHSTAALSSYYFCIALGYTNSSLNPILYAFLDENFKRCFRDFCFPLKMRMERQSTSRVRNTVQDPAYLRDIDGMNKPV
Sequence of 5-hydroxytryptamine receptor 2A (P28223 whole entry): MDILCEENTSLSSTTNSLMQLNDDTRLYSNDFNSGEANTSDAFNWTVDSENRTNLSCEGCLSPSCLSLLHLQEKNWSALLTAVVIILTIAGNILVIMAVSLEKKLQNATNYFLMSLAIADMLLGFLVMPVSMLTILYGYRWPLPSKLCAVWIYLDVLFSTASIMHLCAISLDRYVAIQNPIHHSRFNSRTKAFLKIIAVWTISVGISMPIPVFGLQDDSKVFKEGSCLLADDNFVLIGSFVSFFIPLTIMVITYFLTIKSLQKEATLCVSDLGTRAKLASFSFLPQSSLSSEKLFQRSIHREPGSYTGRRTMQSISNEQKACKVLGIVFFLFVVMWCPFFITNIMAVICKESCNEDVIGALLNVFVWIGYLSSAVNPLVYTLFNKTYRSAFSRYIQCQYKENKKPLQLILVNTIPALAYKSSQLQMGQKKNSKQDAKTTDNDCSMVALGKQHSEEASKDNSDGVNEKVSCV

On to `COc1cc(N)c(Cl)cc1C(=O)NC1CCN(CCCOc2ccc(F)cc2)CC1OC` (stereo not drawn) [CISAPRIDE], for which the AC50 was more than 30 µM in assay [1]; more than 30 µM in assay [2]; more than 30 µM in [3]; more than 10 µM in [4]; more than 30 µM in assay [5]; more than 10 µM in assay [6]. Also, the concentration at half-maximal activity (AC50) in [7] is more than 10 µM; in assay [8], 0.593 µM; in assay [9] it was more than 30 µM; in assay [10] it was 16.7 µM; in assay [11] it was more than 30 µM; in [12], more than 10 µM.

Turning to `CC(CN(C)C)C(C)(O)Cc1ccc(Cl)cc1` (stereo not drawn) [CLOBUTINOL], the AC50 was more than 30 µM in assay [1]; more than 30 µM in [2]; more than 30 µM in assay [3]; more than 10 µM in [4]; more than 30 µM in assay [13]; more than 10 µM in assay [6]. In addition, the AC50 was more than 10 µM in assay [7]; more than 10 µM in assay [8]; more than 30 µM in assay [9]; more than 10 µM in assay [10]; more than 30 µM in assay [11]; more than 10 µM in assay [12]. This compound showed a concentration at half-maximal activity (AC50) in assay [14] of more than 10 µM.

For `CCOC(=O)C(C)(C)Oc1ccc(Cl)cc1` [CLOFIBRATE], the AC50 in assay [1] is more than 30 µM; in [2] it was more than 30 µM; in assay [3], more than 30 µM; in assay [4], more than 10 µM; in assay [5], more than 30 µM; in [13] it was more than 30 µM. The AC50 is more than 10 µM in [6]; more than 10 µM in assay [7]; more than 10 µM in assay [8]; more than 30 µM in assay [9]; more than 10 µM in assay [10]; more than 30 µM in assay [11]. The AC50 in [12] is more than 10 µM.

Turning to `CCCCOc1ccc(C(=O)CCN2CCCCC2)cc1` [DYCLONINE], the AC50 in [1] was more than 10 µM; in [2] it was 4.82 µM; in assay [3], more than 30 µM; in assay [4], more than 10 µM; in [5], more than 30 µM; in assay [13] it was more than 30 µM. Further, the AC50 in assay [6] is more than 10 µM; in assay [7] it was more than 10 µM; in assay [8], 9.66 µM; in [9], more than 30 µM; in [10], more than 10 µM; in assay [11], more than 30 µM. Besides, the values for the concentration at half-maximal activity (AC50) in assay [12] and in assay [14] were more than 10 µM and 8.5 µM, respectively.

In the case of `O=C1Nc2ccc(Cl)cc2C(c2ccccc2Cl)=NC1O` (stereo not drawn) [LORAZEPAM], the AC50 is more than 30 µM in assay [1]; more than 10 µM in assay [2]; more than 30 µM in assay [3]; more than 10 µM in assay [4]; more than 30 µM in assay [5]; more than 30 µM in assay [13]. Besides, the half-maximal activity concentration (AC50) in assay [6] is more than 10 µM; in [7], more than 10 µM; in [8], more than 10 µM; in assay [9], more than 30 µM; in assay [10], more than 10 µM; in assay [11], more than 30 µM. The same compound displayed a concentration at half-maximal activity (AC50) in assay [12] of more than 10 µM.

For `Cc1ccnc2c1NC(=O)c1cccnc1N2C1CC1` [NEVIRAPINE], the AC50 in [1] is more than 10 µM; in assay [2], more than 10 µM; in assay [3], more than 30 µM; in assay [5] it was more than 30 µM; in [13], more than 30 µM; in [6] it was more than 10 µM. Further, the AC50 in assay [7] is more than 10 µM; in assay [8], more than 10 µM; in [9], more than 30 µM; in [10], more than 10 µM; in [11], more than 30 µM; in assay [12], more than 10 µM.

In the case of `CCC(=O)O[C@](Cc1ccccc1)(c1ccccc1)[C@H](C)CN(C)C` [PROPOXYPHENE], the AC50 in assay [1] is 0.693 µM; in assay [2], more than 10 µM; in assay [3], more than 30 µM; in assay [4] it was more than 10 µM; in assay [5], more than 30 µM; in assay [15], 0.17 µM. Moreover, the concentration at half-maximal activity (AC50) in [13] was more than 30 µM; in [6] it was more than 10 µM; in assay [7] it was more than 10 µM; in [8], 8.05 µM; in [9], more than 30 µM; in assay [11], more than 30 µM. For the same compound, the AC50 in assay [12] and in assay [14] was more than 10 µM in each case.

Turning to `CCc1nc(N)nc(N)c1-c1ccc(Cl)cc1` [PYRIMETHAMINE], the AC50 in [1] was more than 30 µM; in assay [2], 2.2 µM; in assay [3] it was more than 30 µM; in assay [4], more than 10 µM; in [15] it was more than 30 µM; in assay [13], more than 30 µM. Further, the concentration at half-maximal activity (AC50) was more than 30 µM in [6]; more than 10 µM in assay [7]; 4 µM in assay [8]; more than 10 µM in assay [9]; more than 30 µM in assay [10]; more than 30 µM in assay [11]. The concentration at half-maximal activity (AC50) in [12] was more than 10 µM; in assay [14], more than 30 µM.

On to `CCOC(=O)c1ccc(C#Cc2ccc3c(c2)C(C)(C)CCS3)nc1` [TAZAROTENE], for which the half-maximal activity concentration (AC50) is more than 30 µM in assay [1]; more than 30 µM in [2]; more than 30 µM in assay [3]; more than 10 µM in assay [4]; more than 30 µM in assay [13]; more than 10 µM in assay [6]. The AC50 is more than 10 µM in [8]; more than 30 µM in [9]; more than 10 µM in assay [10]; more than 30 µM in assay [11]; more than 10 µM in assay [12]; more than 10 µM in [14].

Consider `CC(C)(C)NCC(O)c1ccccc1Cl` (stereo not drawn) [TULOBUTEROL], for which the AC50 in assay [2], in [4], in [5], in assay [15], in [13] and in assay [6] was more than 30 µM each time. Further, the concentration at half-maximal activity (AC50) in [7], in [9], in assay [10], in assay [11] and in assay [16] was more than 30 µM throughout.
